The results in this text go back to paper PMC8596838, “Xylose‐Configured Cyclophellitols as Selective Inhibitors for Glucocerebrosidase” (Chembiochem, 2021).

The target in one experiment is GBA (Danio rerio, UniProt E7EZM1). As to the kind of experiment: In vivo inhibition in zebrafish larvae, read out by cABPP with ABP 10, GBA. The arrangement: species or system zebrafish (Danio rerio). The following applies: larvae exposed to 5 dpf, inhibitor in the medium, cABPP quantification. From the text:
(§1) We further investigated the affinity of 1 and 2 towards β‐D‐glucosidases in living animals using zebrafish (Danio rerio) embryos, which express both GBA and GBA2. Following exposure for 5 days, fish larvae were sacrificed and lysed, and cABPP with ABP 10 was used to detect residual active β‐D‐glucosidase molecules in the lysates and for IC50 determination. […] Aziridine compound 2 is also selective against GBA over GBA2, albeit with a narrower selectivity window (Figure 6A–C). […]
(§2) Figure 6 In vivo inhibitory effect of β‐D‐xylo‐configured compounds on β‐glucosidases in zebrafish (Danio rerio) larvae. […] Fluorescently labeled proteins were visualized after SDS‐PAGE, only GBA and GBA2 were assessed in zebrafish larvae model. (B) Apparent IC50 values towards β‐glucosidases (GBA and GBA2) were determined by the fluorescence quantification based on cABPP results. […] (D) GlcSph levels in zebrafish larvae were determined as described in experiment section, n=2 replicates.
ABP labeling procedure: Glycosidases were labeled with excess fluorescent ABPs at optimum conditions. […] ABP‐emitted fluorescence was quantified using ImageQuant software (GE Healthcare, Chicago, IL, USA) and curve‐fitted using Prism 8.0 (GraphPad Software). After fluorescence scanning, SDS‐PAGE gels were stained for total protein with Coomassie G250 and scanned on a ChemiDoc MP imager (Bio‐Rad, Hercules, CA, USA).[25] […]

In another experiment the target is GBA2 (Danio rerio, UniProt E7F5W0). Kind of experiment: In vivo inhibition in zebrafish larvae, read out by cABPP with ABP 10, GBA2. Details: species or system zebrafish (Danio rerio). The source says: We further investigated the affinity of 1 and 2 towards β‐D‐glucosidases in living animals using zebrafish (Danio rerio) embryos, which express both GBA and GBA2. Following exposure for 5 days, fish larvae were sacrificed and lysed, and cABPP with ABP 10 was used to detect residual active β‐D‐glucosidase molecules in the lysates and for IC50 determination. […] Aziridine compound 2 is also selective against GBA over GBA2, albeit with a narrower selectivity window (Figure 6A–C). We noted that the apparent IC50 in zebrafish embryo is much […] than the observed in intact cells despite the longer incubation time, which could be a result of poorer bioavailability of the cyclophellitol‐related structures in whole animal, as noted earlier by us.[36]
Figure 6 In vivo inhibitory effect of β‐D‐xylo‐configured compounds on β‐glucosidases in zebrafish (Danio rerio) larvae. (A) Larvae were exposed to 5 dpf with the indicated inhibitor 1 or 2 in the medium. Larvae were lysed and incubated with fluorescent ABP 10. Fluorescently labeled proteins were visualized after SDS‐PAGE, only GBA and GBA2 were assessed in zebrafish larvae model. (B) Apparent IC50 values towards β‐glucosidases (GBA and GBA2) were determined by the fluorescence quantification based on cABPP results. (C) In vivo inhibition curves. (D) GlcSph levels in zebrafish larvae were determined as described in experiment section, n=2 replicates.
ABP labeling procedure: Glycosidases were labeled with excess fluorescent ABPs at optimum conditions. ABP labeling was performed at 37 °C for 30 min for all materials (if not otherwise stated), in a total sample volume of 20–40 μL and 0.5–1 % DMSO concentration. GBA was labeled with 200 nM ABP 9 (pH 5.2, 0.1 % (v/v) Triton‐100, 0.2 % (w/v) sodium taurocholate), or labeled together with GBA2 using 200 nM β‐D‐glucose‐configured aziridine ABP 10 at pH 5.8, or labeling together with GBA2 and GBA3 using 200 nM β‐D‐glucose‐configured aziridine ABP 10 at pH 6.0. After ABP incubation, proteins were denatured by boiling the samples with 5× Laemmli buffer (50 % (v/v) 1 M Tris‐HCl, pH 6.8, 50 % (v/v) 100 % glycerol, 10 % (w/v) DTT, 10 % (w/v) SDS, 0.01 % (w/v) bromophenol blue) for 5 min at 98 °C, and separated by electrophoresis on 10 % (w/v) SDS‐PAGE gels running continuously at 90 V. Wet slab‐gels were scanned on fluorescence using the Typhoon FLA 9500 (GE Healthcare) at λEX 473 nm and λEM≥510 nm for green fluorescent ABP 8; and at λEX 635 nm and λEM≥665 nm for ABP 6, 9 and 10. ABP‐emitted fluorescence was quantified using ImageQuant software (GE Healthcare, Chicago, IL, USA) and curve‐fitted using Prism 8.0 (GraphPad Software). After fluorescence scanning, SDS‐PAGE gels were stained for total protein with Coomassie G250 and scanned on a ChemiDoc MP imager (Bio‐Rad, Hercules, CA, USA).[25]
Inhibition of enzymes in zebrafish larvae: Experiments were performed with 5 dpf larvae. For inhibitor treatment, a single fertilized embryo was seeded in a well of a 96‐wells plate, and exposed to 200 μL corresponding inhibitor for 115 hours at 28.5 °C. Per condition, n=24 embryos were used. At 115 hours (5 dpf), larvae were collected, rinsed three times with egg water, fully aspirated, snap‐frozen in liquid nitrogen and stored at −80 °C until homogenization in 96 μL 25 mM potassium phosphate buffer per 24 individuals. Lysis was conducted by sonication with a Polytron PT 1300D sonicator (Kinematica, Luzern, Switzerland) on ice at 20 % power for three seconds, and repeated three times. […]

Experiment [1] has as its system glucosylsphingosine (GlcSph). Kind of experiment: GlcSph levels in inhibitor treated zebrafish larvae (LC-MS). Format: in vivo, zebrafish (Danio rerio). The following applies: treated 103 hours from 8 hpf, n=2.
Excerpt: as §1, §2
Sphingolipid extraction and analysis by mass spectrometry in inhibitor treated zebrafish larvae: Zebrafish embryos at 8 hours post fertilization (hpf) were seeded in 96‐well plates (1 fish embryo/ well, 200 μL egg water/well) and treated with corresponding inhibitors in different concentration for 103 hours at 28.5 °C. […] Lipids were extracted and measured according to methods described previously.[48] […]

In experiment [2] the target is T1, rhGBA (recombinant human GBA, Imiglucerase) (Homo sapiens, UniProt P04062, R534H).
T1 construct: purchased Sanofi Genzyme (Cambridge, MA, USA)
T1 sequence (P04062 40-536 R534H): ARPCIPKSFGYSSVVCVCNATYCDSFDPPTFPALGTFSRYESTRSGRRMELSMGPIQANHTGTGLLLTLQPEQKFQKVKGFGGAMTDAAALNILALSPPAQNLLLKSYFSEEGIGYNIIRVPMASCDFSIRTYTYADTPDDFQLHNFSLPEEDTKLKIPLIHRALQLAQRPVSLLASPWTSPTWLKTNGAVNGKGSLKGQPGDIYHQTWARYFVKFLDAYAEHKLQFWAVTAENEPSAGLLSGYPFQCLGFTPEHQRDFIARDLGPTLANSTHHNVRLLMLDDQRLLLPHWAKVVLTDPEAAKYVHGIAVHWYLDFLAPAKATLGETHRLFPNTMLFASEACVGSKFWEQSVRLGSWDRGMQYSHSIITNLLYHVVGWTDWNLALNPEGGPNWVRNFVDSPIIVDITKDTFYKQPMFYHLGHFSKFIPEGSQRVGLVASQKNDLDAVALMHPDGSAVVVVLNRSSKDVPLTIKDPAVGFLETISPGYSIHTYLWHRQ
Kind of experiment: Fluorogenic substrate (4-MU-β-D-glucoside) enzymatic assay, rhGBA. It counts as biochemical. The following applies: for IC50: enzymatic assay performed for 3 h, n=3, read-out: In vitro apparent IC50 rhGBA, 3 h.

Setting [3] is: IC50 ratio, zebrafish larvae 5 dpf.

Structures are written as SMILES. Like-named read-outs stand apart in the source and are kept apart here. Where only a bound is given, the exact number is not on record here.

The term IC50 denotes the concentration that inhibits the measured activity by half.

Chain of GBA2 (E7F5W0 entry or part of it): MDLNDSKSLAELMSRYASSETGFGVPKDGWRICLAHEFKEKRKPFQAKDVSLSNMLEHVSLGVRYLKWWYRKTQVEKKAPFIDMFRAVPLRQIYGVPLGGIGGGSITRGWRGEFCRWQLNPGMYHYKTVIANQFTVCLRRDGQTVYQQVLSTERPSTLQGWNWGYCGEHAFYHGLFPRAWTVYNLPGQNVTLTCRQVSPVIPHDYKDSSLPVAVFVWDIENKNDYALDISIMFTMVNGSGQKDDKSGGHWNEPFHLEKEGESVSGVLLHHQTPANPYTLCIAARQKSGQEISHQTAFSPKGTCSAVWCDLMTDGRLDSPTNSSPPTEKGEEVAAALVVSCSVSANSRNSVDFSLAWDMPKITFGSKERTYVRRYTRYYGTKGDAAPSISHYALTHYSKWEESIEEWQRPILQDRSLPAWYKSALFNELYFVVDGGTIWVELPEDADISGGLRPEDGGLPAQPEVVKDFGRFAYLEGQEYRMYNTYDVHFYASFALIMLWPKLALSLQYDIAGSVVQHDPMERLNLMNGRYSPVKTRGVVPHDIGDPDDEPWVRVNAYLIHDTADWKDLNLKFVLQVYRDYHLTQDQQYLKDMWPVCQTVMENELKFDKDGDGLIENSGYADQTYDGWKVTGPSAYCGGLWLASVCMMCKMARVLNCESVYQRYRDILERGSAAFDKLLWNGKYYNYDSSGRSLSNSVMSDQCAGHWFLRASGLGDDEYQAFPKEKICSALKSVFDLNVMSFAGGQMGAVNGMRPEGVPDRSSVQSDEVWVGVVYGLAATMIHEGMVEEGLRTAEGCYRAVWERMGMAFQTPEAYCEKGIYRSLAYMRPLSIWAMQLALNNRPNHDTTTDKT
Chain of GBA (E7EZM1 entry or part of it): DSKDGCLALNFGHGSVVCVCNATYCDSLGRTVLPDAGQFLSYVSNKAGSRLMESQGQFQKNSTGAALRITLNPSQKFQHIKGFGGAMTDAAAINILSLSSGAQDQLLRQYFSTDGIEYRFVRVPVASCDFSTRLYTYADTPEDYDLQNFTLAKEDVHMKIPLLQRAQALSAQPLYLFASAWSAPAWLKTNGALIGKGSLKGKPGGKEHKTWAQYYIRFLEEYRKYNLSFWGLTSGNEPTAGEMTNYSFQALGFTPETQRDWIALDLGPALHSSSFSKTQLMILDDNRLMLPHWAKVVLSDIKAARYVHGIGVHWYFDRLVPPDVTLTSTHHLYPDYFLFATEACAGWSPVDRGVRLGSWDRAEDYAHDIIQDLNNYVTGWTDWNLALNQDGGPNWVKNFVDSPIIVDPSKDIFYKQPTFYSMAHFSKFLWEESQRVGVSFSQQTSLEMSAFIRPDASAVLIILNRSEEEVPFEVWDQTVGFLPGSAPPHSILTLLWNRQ

As for `O[C@@H]1[C@@H](O)[C@H](O)C[C@H]2N[C@@H]12` [compound 2, β‐D‐xylo‐Cyclophellitol aziridine], the 50% inhibitory concentration (IC50) worked out at 6.99 µM against GBA; 150 µM on GBA2 (read-out: Zebrafish larvae IC50 GBA2; larvae exposed to 5 dpf, inhibitor in the medium, cABPP quantification); 0.24 ± 0.03 µM in experiment [2]. Further, the “GBA2/GBA ratio, zebrafish larvae” value at GBA2 (setting [3]) turned out to be 21. Besides, the “GlcSph levels in zebrafish embryos” value in experiment [1] is given as “increased levels of GlcSph”. Also, the “increase in inhibitory activity towards GBA of aziridines relative to epoxide analogues” value in experiment [2] (in vitro 3 h) is listed as “less than two‐fold increase”.

Regarding `O[C@@H]1[C@@H](O)[C@H](O)C[C@H]2O[C@@H]12` [compound 1, xylo‐cyclophellitol], the IC50 against GBA was 3.01 µM; at GBA2 (larvae exposed to 5 dpf, inhibitor in the medium, cABPP quantification; read-out: Zebrafish larvae IC50 GBA2), more than 150 µM; in experiment [2], 0.45 ± 0.02 µM. The “effect on ABP labelling of GBA2 in zebrafish at 150 μM” value at GBA2 (150 μM, exposure for 5 days) is reported as “without targeting GBA2”. On GBA2 (setting [3]), the “GBA2/GBA ratio, zebrafish larvae” value is more than 50. In experiment [1], the “GlcSph levels in zebrafish embryos” value was “increased levels of GlcSph”.
